Like-named read-outs stand apart in the source and are kept apart here.
Key:
NK Falkone corn seeds [1] = assay: Corn seed germination, osmotic stress (PEG 2%) and cold stress (15° C.); type: in vivo; conditions: osmotic (PEG 2%) and cold 15° C.
Method: (§1) NK Falkone corn seeds (harvested in 2015) were sorted by size using a sieve to keep away round seeds.
(§2) The corn seeds were placed in 24 well plates (each plate was considered as one experimental unit or replicate). Germination was initiated by the addition of 200 μl of distilled water containing 0.5% DMSO per well. 8 replicates (i.e. 8 plates) were used for each treatment characterization. Plates were sealed using seal foil (Polyolefin Art. Nr. 900320) from HJ-BIOANALYTIK. All plates were placed in two carrousels in a climatic chamber at 15° C. The experiment was laid out in a completely randomized design in climatic chamber with 60% Relative Humidity.
(§3) Germination was followed over time by taking photographs at different time points. Image analysis was performed automatically with a macro which was developed using the Image J software. A dynamic analysis of germination was carried out by fitting a logistic curve. Three parameters were calculated from the logistic curve: the T50; the slope and the plateau. All three parameters have a high agronomical relevance and are key requirements to ensure a good early crop-establishment. The T50 and slope for a selection of compounds are outlined in Table 2 below. All the values are expressed as percentages compared to an untreated control. All the three parameters are calculated considering 8 replicates and the kinetic parameters are separately determined for each germination curve. Data in bold indicate germination enhancing statistically significant differences between treated seeds and untreated control (p<0.05). T50 corresponds to the time needed for half of the seed population to germinate. Higher negative %-values indicate faster germination. Slope indicates how synchronous the germination of the seed population is. Positive values indicate steeper curve. The steeper the curve, the better and more uniform the germination is.
(§4) The effect of compounds of Formula (III-1 and P1) on the germination of NK Falkone corn seeds under salt and cold stress was evaluated as follows.
The experimental protocol was the same as in Example B1, except that germination was initiated by the addition of 200 μl of distilled water containing 0.5% DMSO and 2% PEG per well.

Hydrolytic stability = type: physicochemical; conditions: 40° C.; for half-life: aqueous buffer/acetonitrile solution, pH 9, pH 9, buffer/acetonitrile
Method: Prior to conducting the individual hydrolytic stability assays, stock solutions containing 1000 ppm of each test compound (i.e. compounds III-1 and P1) were prepared in acetonitrile.
The reagents used in the assays were prepared as follows. A 20 mM buffer solution was prepared from a stock solution of 20 mM mixed acetate, borate and phosphate buffer and the pH adjusted to 7 or 9 as required.
Test solutions were prepared in LC vials for each test compound in the following manner: Hydrolytic Stability: Buffer (750 μL)+acetonitrile (250 μL)+compound stock solution (2 to 40 μL).
The buffers were initially dispensed into separate glass LC vials, placed into an autosampler complete with thermostat set at 40° C. and allowed to equilibrate for 30 minutes prior to starting the individual assays.
Analysis was carried out on Waters LCMS systems under reverse phase conditions using 10 cm C18 columns and acetonitrile (HPLC grade) acidified water (0.2% formic acid) mobile phase at a flow rate of 1 ml min-1. Peak detection was at the optimum wavelength (230-250 nm) and peak areas were used for quantification
Reactions were initiated by addition of the compound solution and monitored through a series of repeat injections made directly from the vial into the HPLC system at regular time intervals. Initial and subsequent measurements of peak area attributable to the test compound were used to fit exponential half-lives and calculate first-order rate constants.
Consequently, the percentage of compound remaining was recorded at the last assessment time.

NK Falkone corn seeds [2] = assay: Corn seed germination, cold stress (15° C.); type: in vivo; conditions: for T50 (% vs control): control T50 = 110 hours
Method: The effect of compounds of Formula (II-1 and III-1) on the germination of NK Falkone corn seeds under salt and cold stress was evaluated as follows.
as §1, §2, §3

NK Falkone corn seeds [3] = assay: Corn seed germination, salt (NaCl, 100 mM) and cold stresses (15° C.); type: in vivo; conditions: cold 15° C. and salt 100 mM NaCl
Method: as §1, §2, §3, §4
The experimental protocol was the same as in Example B1, except that germination was initiated by the addition of 200 μl of distilled water containing 0.5% DMSO and 100 mM NaCl per well.

NK Falkone corn seeds [4] = assay: Corn seed germination, salt (NaCl, 100 mM) stress and optimal temperature (23° C.); type: in vivo; conditions: salt (NaCl) stress
Method: as §1
as §2, with “Germination was initiated by the addition of 200 μl of distilled water containing 0.5% DMSO per well.” left out
as §3
The experimental protocol was the same as in Example B1, except that the plates were placed in a climatic chamber at 23° C.

CC1=CC(O/C=C2/C(=O)NC3c4ccccc4CC23)N(c2cc(C(F)(F)F)cc(C(F)(F)F)c2)C1=O (stereo not drawn) [Compound P1, reference compound]
Slope (% vs control) (NK Falkone corn seeds [1]; Rate 0.4 μM): 2.7 % vs control
T50 (% vs control) (NK Falkone corn seeds [1]; Rate 0.4 μM): −0.8 % vs control
Slope (% vs control) (NK Falkone corn seeds [1]; Rate 2 μM): 3.2 % vs control
T50 (% vs control) (NK Falkone corn seeds [1]; Rate 2 μM): −0.8 % vs control
Slope (% vs control) (NK Falkone corn seeds [1]; Rate 10 μM): 20.9 % vs control
T50 (% vs control) (NK Falkone corn seeds [1]; Rate 10 μM): −2.8 % vs control
Slope (% vs control) (NK Falkone corn seeds [1]; Rate 50 μM): 1.3 % vs control
T50 (% vs control) (NK Falkone corn seeds [1]; Rate 50 μM): −4.3 % vs control
half-life (Hydrolytic stability; less polar isomer, read-out: Hydrolytic stability pH9 (t½), less polar isomer (converted)): 59 h
half-life (Hydrolytic stability; more polar isomer, read-out: Hydrolytic stability pH9 (t½), more polar isomer): > 59 h
% remaining, less polar isomer (Hydrolytic stability; pH 9, at 17.3 hours, less polar isomer): 85.5% remaining at 17.3 hours
% remaining, more polar isomer (Hydrolytic stability; pH 9, at 17.3 hours, more polar isomer): 97.9% remaining at 17.3 hours
Slope (% vs control) (NK Falkone corn seeds [2]; Rate 0.4 μM): 18.4 % vs control
T50 (% vs control) (NK Falkone corn seeds [2]; Rate 0.4 μM): −2.2 % vs control
Slope (% vs control) (NK Falkone corn seeds [2]; Rate 2 μM): 7.36 % vs control
T50 (% vs control) (NK Falkone corn seeds [2]; Rate 2 μM): −1.4 % vs control
Slope (% vs control) (NK Falkone corn seeds [2]; Rate 10 μM): 63.91 % vs control
T50 (% vs control) (NK Falkone corn seeds [2]; Rate 10 μM): −8.95 % vs control
Slope (% vs control) (NK Falkone corn seeds [2]; Rate 50 μM): 144.52 % vs control
T50 (% vs control) (NK Falkone corn seeds [2]; Rate 50 μM): −11.7 % vs control
Slope (% vs control) (NK Falkone corn seeds [3]; Rate 0.4 μM): 14.2 % vs control
T50 (% vs control) (NK Falkone corn seeds [3]; Rate 0.4 μM): 0.5 % vs control
Slope (% vs control) (NK Falkone corn seeds [3]; Rate 2 μM): 11.7 % vs control
T50 (% vs control) (NK Falkone corn seeds [3]; Rate 2 μM): −0.3 % vs control
Slope (% vs control) (NK Falkone corn seeds [3]; Rate 10 μM): 83.9 % vs control
T50 (% vs control) (NK Falkone corn seeds [3]; Rate 10 μM): −10.7 % vs control
Slope (% vs control) (NK Falkone corn seeds [3]; Rate 50 μM): 61.2 % vs control
T50 (% vs control) (NK Falkone corn seeds [3]; Rate 50 μM): −5.1 % vs control
Slope (% vs control) (NK Falkone corn seeds [4]; Rate 0.4 μM): 4.1 % vs control
T50 (% vs control) (NK Falkone corn seeds [4]; Rate 0.4 μM): −0.4 % vs control
Slope (% vs control) (NK Falkone corn seeds [4]; Rate 2 μM): 2.8 % vs control
T50 (% vs control) (NK Falkone corn seeds [4]; Rate 2 μM): 3.3 % vs control
Slope (% vs control) (NK Falkone corn seeds [4]; Rate 10 μM): 70.8 % vs control
T50 (% vs control) (NK Falkone corn seeds [4]; Rate 10 μM): −10.2 % vs control
Slope (% vs control) (NK Falkone corn seeds [4]; Rate 50 μM): 111.4 % vs control
T50 (% vs control) (NK Falkone corn seeds [4]; Rate 50 μM): −15.2 % vs control

CC1=CC(O/C=C2/C(=O)OC3c4ccccc4CC23)N(c2cc(C(F)(F)F)cc(C(F)(F)F)c2)C1=O (stereo not drawn) [Compound P2, reference compound]
Slope (% vs control) (NK Falkone corn seeds [2]; Rate 2 μM): −19.5 % vs control
T50 (% vs control) (NK Falkone corn seeds [2]; Rate 2 μM): −0.8 % vs control
Slope (% vs control) (NK Falkone corn seeds [2]; Rate 10 μM): −13.4 % vs control
T50 (% vs control) (NK Falkone corn seeds [2]; Rate 10 μM): −2.0 % vs control
Slope (% vs control) (NK Falkone corn seeds [2]; Rate 50 μM): −19.7 % vs control
T50 (% vs control) (NK Falkone corn seeds [2]; Rate 50 μM): −0.9 % vs control
